Data reported in ChEMBL document CHEMBL1126467, “Discovery of dual activity molecules with thromboxane antagonist and thromboxane synthase inhibitory activity” (Bioorg Med Chem Lett, 1992).

Columns and labels:
Thromboxane-A synthase [1] = target: T1, Thromboxane-A synthase (Homo sapiens, UniProt P24557); experiment: Human microsomal Thromboxane synthase inhibition was determined by inhibiting TXB2 formation from [14C]- labelled arachidonic acid; Not active
T1 sequence (P24557 whole entry): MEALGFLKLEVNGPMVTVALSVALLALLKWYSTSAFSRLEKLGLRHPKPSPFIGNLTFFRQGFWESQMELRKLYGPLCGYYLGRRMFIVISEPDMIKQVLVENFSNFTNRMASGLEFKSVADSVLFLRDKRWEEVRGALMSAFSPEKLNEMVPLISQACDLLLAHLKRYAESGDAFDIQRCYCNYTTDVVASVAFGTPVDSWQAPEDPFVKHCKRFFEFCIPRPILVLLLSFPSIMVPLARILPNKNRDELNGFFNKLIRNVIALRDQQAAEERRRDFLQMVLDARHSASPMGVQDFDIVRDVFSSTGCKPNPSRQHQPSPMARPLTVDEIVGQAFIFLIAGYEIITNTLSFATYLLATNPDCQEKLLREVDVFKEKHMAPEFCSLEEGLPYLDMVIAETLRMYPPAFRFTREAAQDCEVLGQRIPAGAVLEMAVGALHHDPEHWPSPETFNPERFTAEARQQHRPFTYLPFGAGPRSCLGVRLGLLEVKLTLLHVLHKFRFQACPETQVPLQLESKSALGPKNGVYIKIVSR

Thromboxane A2 receptor = target: T2, Thromboxane A2 receptor (Homo sapiens, UniProt P21731); experiment: Tested for thromboxane antagonist potency (pA2) against […] induced platelet aggregation using human platelet rich plasma; assay type: functional, cell-free; details: read-out: pA2 (converted)
T2 sequence (P21731 whole entry): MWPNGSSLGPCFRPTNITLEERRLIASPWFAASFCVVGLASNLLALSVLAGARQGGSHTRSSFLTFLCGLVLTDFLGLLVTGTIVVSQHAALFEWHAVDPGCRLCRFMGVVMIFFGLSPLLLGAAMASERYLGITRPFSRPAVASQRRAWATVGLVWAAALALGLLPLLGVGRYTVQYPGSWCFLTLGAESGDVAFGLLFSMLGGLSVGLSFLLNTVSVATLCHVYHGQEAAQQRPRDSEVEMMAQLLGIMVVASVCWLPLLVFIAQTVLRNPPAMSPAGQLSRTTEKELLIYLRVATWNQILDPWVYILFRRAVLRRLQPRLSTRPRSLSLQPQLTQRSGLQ

Thromboxane-A synthase [2] = target: T1, Thromboxane-A synthase; experiment: Human microsomal Thromboxane synthase inhibition was determined by inhibiting TXB2 formation from [14C]- labelled arachidonic acid
[3] = target: T3, Thromboxane A2 receptor (Rattus norvegicus) (UniProt P34978); experiment: Compound was tested for in vivo inhibition of thromboxane A2 receptor inhibition 1 hr after administration of 10 mg/kg orally to rat; assay type: organism-based; parameters: dose 10 mg/kg; details: at 10 mg/kg
T3 sequence (whole entry): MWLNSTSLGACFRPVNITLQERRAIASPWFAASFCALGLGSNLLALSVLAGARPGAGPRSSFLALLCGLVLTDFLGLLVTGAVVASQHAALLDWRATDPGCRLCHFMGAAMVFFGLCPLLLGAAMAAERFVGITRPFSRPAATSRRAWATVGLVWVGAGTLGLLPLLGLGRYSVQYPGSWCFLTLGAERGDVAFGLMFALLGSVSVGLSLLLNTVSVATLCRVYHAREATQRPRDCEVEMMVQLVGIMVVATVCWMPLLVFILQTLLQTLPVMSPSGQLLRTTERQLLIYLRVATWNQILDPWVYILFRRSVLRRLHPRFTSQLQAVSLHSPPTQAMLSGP

[4] = target: T3, Thromboxane A2 receptor (Rattus norvegicus); experiment: Compound was tested for in vivo inhibition of thromboxane-A2 receptor inhibition 3 hr after administration of 10 mg/kg orally to rat; assay type: organism-based; parameters: dose 10 mg/kg; details: at 10 mg/kg
[5] = target: T3, Thromboxane A2 receptor (Rattus norvegicus); experiment: Compound was tested for in vivo inhibition of thromboxane-A2 receptor inhibition 5 hr after administration of 10 mg/kg orally to rat; assay type: organism-based; parameters: dose 10 mg/kg; details: at 10 mg/kg

Row | IC50 (Thromboxane-A synthase [1]) | Kb (Thromboxane A2 receptor) | IC50 (Thromboxane-A synthase [2]) | inhibition [3] | inhibition [4] | inhibition [5] | SMILES
1 | – | 501 nM | 100 nM | – | – | – | O=C(O)CC1CCCc2c1n(Cc1cccc(OCCCCc3cccnc3)c1)c1ccc(F)cc21 (stereo not drawn)
2 | – | 200 nM | 400 nM | – | – | – | O=C(O)CC1CCCc2c1n(Cc1ccc(OCCCCC#Cc3cccnc3)cc1)c1ccc(F)cc21 (stereo not drawn)
3 | – | 158 nM | 600 nM | – | – | – | O=C(O)CC1CCCc2c1n(Cc1ccc(OCCCC#Cc3cccnc3)cc1)c1ccc(F)cc21 (stereo not drawn)
4 | – | 2510 nM | 40 nM | – | – | – | O=C(O)CC1CCCc2c1n(Cc1cccc(OCCCCC#Cc3cccnc3)c1)c1ccc(F)cc21 (stereo not drawn)
5 | – | 3160 nM | 300 nM | – | – | – | O=C(O)CC1CCCc2c1n(Cc1cccc(OCCCCCc3cccnc3)c1)c1ccc(F)cc21 (stereo not drawn)
6 | – | 1000 nM | 50 nM | 86% | 77% | 71% | O=C(O)CC1CCCc2c1n(Cc1cccc(OCCCC#Cc3cccnc3)c1)c1ccc(F)cc21 (stereo not drawn)

Second part, the compound before the results:

Row | SMILES | IC50 (Thromboxane-A synthase [1]) | Kb (Thromboxane A2 receptor) | IC50 (Thromboxane-A synthase [2]) | inhibition [3] | inhibition [4] | inhibition [5]
7 | O=C(O)CC1CCCc2c1n(Cc1ccc(Cl)cc1)c1ccc(F)cc21 (stereo not drawn) | Not Active | 79.4 nM | – | – | – | –
8 | O=C(O)CC1CCCc2c1n(Cc1cccc(OCCC/C=C\c3cccnc3)c1)c1ccc(F)cc21 (stereo not drawn) | – | 631 nM | 200 nM | – | – | –
9 | O=C(O)CC1CCCc2c1n(Cc1cccc(CCCCCc3cccnc3)c1)c1ccc(F)cc21 (stereo not drawn) | – | 3980 nM | 500 nM | – | – | –
10 | O=C(O)CC1CCCc2c1n(Cc1cccnc1)c1ccc(F)cc21 (stereo not drawn) | Not Active | 3160 nM | – | – | – | –
